According to article PMC10999543, “Identification of kinase modulators as host-directed therapeutics against intracellular methicillin-resistant Staphylococcus aureus” (Frontiers in Cellular and Infection Microbiology, 2024):
Read-outs that look alike come from different tables or passages of the source.

Tests used:
[1] = tested on: intracellular MRSA; format: cell-based, Staphylococcus aureus; conditions: for %GFP+ rep 1 / z-scoreMRSA+ rep 1: replicate 1; for %GFP+ rep 2 / z-scoreMRSA+ rep 2: replicate 2; for %GFP+ rep 3 / z-scoreMRSA+ rep 3: replicate 3; for z-scoreMRSA+ mean: mean of 3 replicates
Method in brief: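 HeLa, MRSA-GFP at MOI ~6.8, 1 h infection; gentamicin 30 µg/ml for 15 min; inhibitor plus gentamicin 5 µg/ml overnight, 37°C/5% CO2; triplicate plates; FACS %GFP+ and cell count; hit = z ≤ -2 MRSA+, z ≥ -3 count.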

[2] = tested on: HeLa cells; assay: Compound screen by flow cytometry: HeLa cell count as surrogate readout of cell viability (z-scoreHeLa); format: cell-based, human; conditions: for cell count rep 1 / z-scoreHeLa rep 1: replicate 1; for cell count rep 2 / z-scoreHeLa rep 2: replicate 2; for cell count rep 3 / z-scoreHeLa rep 3: replicate 3; for z-scoreHeLa mean: mean of 3 replicates
Method in brief: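 HeLa cells were infected with GFP-MRSA (mean MOI 6.8 ± 4.6) for 1 h, and extracellular bacteria were killed with 30 µg/ml gentamicin. Cells were then incubated overnight with kinase inhibitors in 5 µg/ml gentamicin, in triplicate against DMSO controls. Flow-cytometric cell count served as a viability surrogate, expressed as a plate z-score.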

[3] = PKIS compound screen raw data, MRSA-infected HeLa cells
[4] = PKIS compound screen, Yes/No call
[5] = PKIS compound screen, Yes/No call (effect without cell death)
[6] = PKIS compounds raw data, MRSA-infected HeLa cells
[7] = Yes/No: effect without cell death
[8] = compound screen, MRSA-infected HeLa cells
[9] = PKIS compound screen raw data, HeLa cell count
[10] = PKIS compounds raw data, HeLa cell count
[11] = compound screen, HeLa cell count
[12] = PKIS compound screen, MRSA-infected HeLa cells
[13] = PKIS compound screen, Yes/No call on z-scoreMRSA+
[14] = PKIS compound screen, HeLa cell count
[15] = PKIS compound screen, Yes/No call on z-scoreHeLa

| SMILES | %GFP+ rep 1 [1, 3] [%] | %GFP+ rep 2 [1, 3] [%] | %GFP+ rep 3 [1, 3] [%] | hit [1, 5] | effect ([1]; Yes/No call from z-scoreMRSA+) | hit [1, 7] | z-scoreMRSA+ mean [1, 8] | z-scoreMRSA+ rep 1 [1, 8] | z-scoreMRSA+ rep 2 [1, 8] | z-scoreMRSA+ rep 3 [1, 8] | cell count rep 1 [2, 9] | cell count rep 2 [2, 9] | cell count rep 3 [2, 9] | cell death ([2]; Yes/No call from z-scoreHeLa) | z-scoreHeLa mean [2, 11] | z-scoreHeLa rep 1 [2, 11] | z-scoreHeLa rep 2 [2, 11] | z-scoreHeLa rep 3 [2, 11] | z-scoreMRSA+ mean [1, 12] | z-scoreMRSA+ rep 1 [1, 12] | further results |
| --- | --- | --- | --- | --- | --- | --- | --- | --- | --- | --- | --- | --- | --- | --- | --- | --- | --- | --- | --- | --- | --- |
| N#Cc1ccc(CCNc2nccc(-c3cccc(CN4CCNCC4)c3)n2)cc1 [GSK2137462A] | 14.3 | 14.4 | 16.1 | No | No | No | -1.32 | -1.20 | -1.37 | -1.40 | 48589 | 40019 | 40009 | No | 3.25 | 3.12 | 2.53 | 4.11 |  |  | effect [1, 4]: No; z-scoreMRSA+ mean ([1]; PKIS compound screen): -0.14; z-scoreMRSA+ rep 1 ([1]; PKIS compound screen): -0.07; z-scoreMRSA+ rep 2 ([1]; PKIS compound screen): -0.12; z-scoreMRSA+ rep 3 ([1]; PKIS compound screen): -0.24; %GFP+ rep 1 [1, 6]: 26.7%; %GFP+ rep 2 [1, 6]: 25.4%; %GFP+ rep 3 [1, 6]: 26.0%; cell death [2, 4]: No; z-scoreHeLa mean ([2]; PKIS compound screen): 0.08; z-scoreHeLa rep 1 ([2]; PKIS compound screen): -0.12; z-scoreHeLa rep 2 ([2]; PKIS compound screen): 0.13; z-scoreHeLa rep 3 ([2]; PKIS compound screen): 0.23; cell count rep 1 [2, 10]: 5843; cell count rep 2 [2, 10]: 6203; cell count rep 3 [2, 10]: 5956 |
| COc1cc(C)c(N(C)C(=O)CN(C)C)cc1Nc1nc(Nc2cccc(F)c2C(N)=O)c2cc[nH]c2n1 [GSK2219385A] | 15.2 | 16.3 | 17.5 | No |  |  |  |  |  |  | 14421 | 25742 | 38560 |  |  |  |  |  | -0.74 | -0.84 | z-scoreMRSA+ rep 2 [1, 12]: -0.67; z-scoreMRSA+ rep 3 [1, 12]: -0.70; effect [1, 13]: No; z-scoreHeLa mean [2, 14]: -0.95; z-scoreHeLa rep 1 [2, 14]: -0.86; z-scoreHeLa rep 2 [2, 14]: -1.69; z-scoreHeLa rep 3 [2, 14]: -0.31; cell death [2, 15]: No |
| Cc1c(Cn2ccn3c(=O)cc(N4CCOCC4)nc23)cccc1C(F)(F)F [GSK2289044B] | 13.5 | 15.4 | 14.7 | No |  |  |  |  |  |  | 23358 | 26653 | 34666 |  |  |  |  |  | -1.29 | -1.38 | z-scoreMRSA+ rep 2 [1, 12]: -0.94; z-scoreMRSA+ rep 3 [1, 12]: -1.55; effect [1, 13]: No; z-scoreHeLa mean [2, 14]: -0.65; z-scoreHeLa rep 1 [2, 14]: 0.49; z-scoreHeLa rep 2 [2, 14]: -1.52; z-scoreHeLa rep 3 [2, 14]: -0.93; cell death [2, 15]: No |
| O=c1cc(N2CCOCC2)nc2n(Cc3cccc(Cl)c3)ccn12 [GSK2296823A] | 13.9 | 14.9 | 15.7 |  | No | No | -1.35 | -1.30 | -1.23 | -1.51 | 36512 | 34515 | 25382 | No | 1.30 | 1.07 | 1.58 | 1.26 |  |  |  |
